The results in this text go back to BindingDB's records for doi:10.7270/Q2K64GGJ (University of Pittsburgh, 2006).

The experiment addresses T1, Dual specificity protein phosphatase 1 (Homo sapiens, UniProt P28562).
T1 sequence (P28562 whole entry): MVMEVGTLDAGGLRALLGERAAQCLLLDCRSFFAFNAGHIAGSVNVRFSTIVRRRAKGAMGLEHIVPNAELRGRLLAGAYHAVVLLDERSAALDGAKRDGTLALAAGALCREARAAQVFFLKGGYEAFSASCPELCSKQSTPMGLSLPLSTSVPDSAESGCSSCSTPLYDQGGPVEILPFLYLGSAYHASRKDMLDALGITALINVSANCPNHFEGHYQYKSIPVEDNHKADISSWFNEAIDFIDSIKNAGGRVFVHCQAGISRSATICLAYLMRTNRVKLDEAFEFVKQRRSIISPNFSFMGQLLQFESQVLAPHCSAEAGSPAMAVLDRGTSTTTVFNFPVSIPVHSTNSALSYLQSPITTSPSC
Description: DUSP1 dephosphorylation activity inhibition – biochemical, in vitro, dose response, specificity testing, selectivity assay, confirmation (AID 442).
As to `Cc1ccc2c(c1C)NC(C(=O)O)C1CC=CC21` (stereo not given), the IC50 (usually the concentration needed to halve the response being measured) was 40.3 µM.

`CCn1nc(-c2ccccc2)nc2c(=O)n(C)c(=O)nc1-2` [1-Ethyl-6-methyl-3-phenyl-1H-pyrimido[5,4-e][1,2,4]triazine-5,7-dione] gave an IC50 of 0.19 µM.

As to `CC(C)Cn1c(N)c(C(=O)COC(=O)c2cc(-c3ccco3)nc3ccccc23)c(=O)n(C)c1=O` [2-(2-furanyl)-4-quinolinecarboxylic acid [2-[4-amino-1-methyl-3-(2-methylpropyl)-2,6-dioxo-5-pyrimidinyl]-2-oxoethyl] ester], it took 16.8 µM to reach half-maximal inhibition (IC50).

The compound `CCCCC[C@H](O)C=C[C@H]1C=CC(=O)[C@@H]1C/C=C\CCCC(=O)O` [(Z)-7-[(1R,5S)-2-oxidanylidene-5-[(E,3S)-3-oxidanyloct-1-enyl]cyclopent-3-en-1-yl]hept-5-enoic acid] registered an IC50 of 23.3 µM.

The compound `COc1ccc(Cn2c(C)nc3c(c2=O)c2nc4ccccc4nc2n3Cc2ccco2)cc1` [MLS000079944] gave an IC50 of 18.1 µM.
